Publication PMC2759517 (PLoS ONE, 2009)
Where no end group is shown, it is not given here.

biological target: T1, HA-tagged PA of FluB (Influenza B virus, UniProt Q9QLI9); test: biochemical; format: binding
T1 construct: upstream of the initiation codon and antisense primers with a deleted stop codon; made in house; host or cells: human 293T cells, transiently transfected; unpurified cell lysate
T1 sequence (Q9QLI9 whole entry): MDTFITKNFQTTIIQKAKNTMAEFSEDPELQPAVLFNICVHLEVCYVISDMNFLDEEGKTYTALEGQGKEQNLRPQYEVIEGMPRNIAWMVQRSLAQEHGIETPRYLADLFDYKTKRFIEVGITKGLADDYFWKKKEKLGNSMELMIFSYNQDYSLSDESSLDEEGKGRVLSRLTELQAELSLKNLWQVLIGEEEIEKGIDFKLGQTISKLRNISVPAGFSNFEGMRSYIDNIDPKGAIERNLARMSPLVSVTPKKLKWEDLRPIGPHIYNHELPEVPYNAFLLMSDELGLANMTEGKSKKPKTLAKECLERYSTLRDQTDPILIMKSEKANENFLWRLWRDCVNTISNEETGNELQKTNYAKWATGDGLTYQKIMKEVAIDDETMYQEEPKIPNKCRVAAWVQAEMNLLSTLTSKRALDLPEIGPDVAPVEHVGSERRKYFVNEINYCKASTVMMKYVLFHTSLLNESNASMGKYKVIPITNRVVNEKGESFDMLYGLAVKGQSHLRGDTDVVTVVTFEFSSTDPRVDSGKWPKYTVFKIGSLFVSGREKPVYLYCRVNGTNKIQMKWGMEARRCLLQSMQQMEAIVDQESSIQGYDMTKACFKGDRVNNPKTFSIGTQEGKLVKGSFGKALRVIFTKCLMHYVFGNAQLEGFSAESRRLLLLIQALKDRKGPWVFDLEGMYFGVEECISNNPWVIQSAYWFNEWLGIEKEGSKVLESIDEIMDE

| Molecule | IC50 [nM] |
| --- | --- |
| MDVNPTFLFLKVPAQ-NH2 [PB11-15 AL7F] | > 3000 |
| MDVNPYLLFLKVPAQ-NH2 [PB11-15 AT6Y] | 107 |
| MNINPTLLFLKVPIQ-NH2 [PB11-15 AD2N,V3I,L14I] | > 3000 |
| MDVNPTLLFIDVPAQ-NH2 [PB11-15 AL10I,K11D] | > 3000 |
| MDVNPHLLFLKVPAQ-NH2 [PB11-15 AT6H] | > 3000 |
| MDVNPWLLFLKVPAQ-NH2 [PB11-15 AT6W] | 628 |
| MDVNPFLLFLKVPAQ-NH2 [PB11-15 AT6F] | 750 |
| MDVNPYFLFLKVPAQ-NH2 [PB11-15 AT6Y,L7F] | 345 |
| MDVNPCLLFLKVPAQ-NH2 [PB11-15 AT6C] | > 3000 |
| CC[C@H](C)[C@H](NC(=O)[C@H](CC(N)=O)NC(=O)[C@@H](N)CCSC)C(=O)N[C@@H](CC(N)=O)C(=O)N1CCC[C@H]1C(=O)N[C@H](C(=O)N[C@@H](CC(C)C)C(=O)N[C@@H](CC(C)C)C(=O)N[C@@H](Cc1ccccc1)C(=O)N[C@@H](CC(C)C)C(=O)N[C@@H](CCCCN)C(=O)N[C@H](C(=O)N1CCC[C@H]1C(=O)N[C@@H](C)C(=O)N[C@@H](CCC(N)=O)C(N)=O)C(C)C)[C@@H](C)O [PB11-15 AD2N,V3I] | > 3000 |
